Test results from US20230127839A1, “COMPOUNDS AND COMPOSITIONS FOR TREATING CONDITIONS ASSOCIATED WITH STING ACTIVITY” (IFM Due, Inc., priority 2019, published 2023).

Biological target: T1, hSTING (Homo sapiens, UniProt Q86WV6, G230A/H232R/R293Q/R71H)
T1 construct: host or cells: THP1-Dual KO-IFNAR2 cells
Experiment: STING reporter assay (luciferase) in THP1-Dual KO-IFNAR2 cells stimulated with 2'3'cGAMP
Assay type: cell-based
Conditions: 2'3'cGAMP 15 μM, 24 h, luciferase reporter activity
Description: STING pathway activation by the compounds described herein is measured using THP1-Dual™ cells (KO-IFNAR2).
THP1-Dual™ KO-IFNAR2 Cells (obtained from invivogen) are maintained in RPMI, 10% FCS, 5 ml P/S, 2 mM L-glut, 10 mM Hepes, and 1 mM sodium pyruvate.
Compounds are spotted in empty 384 well tissue culture plates (Greiner 781182) by Echo for a final concentration of 0.0017-100 μM. Cells are plated into the TC plates at 40 μL per well, 2×10E6 cells/mL. For activation with STING ligand, 2′3′cGAMP (MW 718.38, obtained from Invivogen), is prepared in Optimem media.
The following solutions are prepared for each 1×384 plate: • Solution A: 2 mL Optimem with one of the following stimuli: • 60 uL of 10 mM 2′3′cGAMP->150 μM stock • Solution B: 2 mL Optimem with 60 μL Lipofectamine 2000->Incubate 5 min at RT
2 mL of solution A and 2 ml Solution B is mixed and incubated for 20 min at room temperature (RT). 20 uL of transfection solution (A+B) is added on top of the plated cells, with a final 2′3′cGAMP concentration of 15 μM. The plates are then centrifuged immediately at 340 g for 1 minute, after which they are incubated at 37° C., 5% CO2, >98% humidity for 24 h. Luciferase reporter activity is then measured. EC50 values are calculated by using standard methods known in the art.
Luciferase reporter assay: 10 μL of supernatant from the assay is transferred to white 384-plate with flat bottom and squared wells. One pouch of QUANTI-Luc™ Plus us dissolved in 25 mL of water. 100 μL of QLC Stabilizer per 25 mL of QUANTI-Luc™ Plus solution is added. 50 μL of QUANTI-Luc™ Plus/QLC solution per well is then added. Luminescence is measured on a Platereader (e.g., Spectramax I3X (Molecular Devices GF3637001)).
Luciferase reporter activity is then measured. EC50 values are calculated by using standard methods known in the art.

T1 sequence (Q86WV6 whole entry R71H/G230A/H232R/R293Q): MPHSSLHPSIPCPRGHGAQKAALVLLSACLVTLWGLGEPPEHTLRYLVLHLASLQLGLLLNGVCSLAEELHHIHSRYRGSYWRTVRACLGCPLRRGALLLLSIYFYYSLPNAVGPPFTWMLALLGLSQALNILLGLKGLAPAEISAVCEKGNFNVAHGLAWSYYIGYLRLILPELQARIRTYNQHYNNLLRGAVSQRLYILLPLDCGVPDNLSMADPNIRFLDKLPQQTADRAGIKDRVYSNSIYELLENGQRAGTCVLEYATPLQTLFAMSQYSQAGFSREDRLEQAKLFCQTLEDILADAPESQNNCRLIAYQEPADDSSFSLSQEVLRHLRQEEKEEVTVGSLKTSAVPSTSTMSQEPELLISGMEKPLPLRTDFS

| SMILES | EC50 |
| --- | --- |
| CC1(C)OCC(c2ncc(NC(=O)Nc3c[nH]c4ccc(Cl)cc34)cc2Cl)CO1 [Compound 264, 1-(5-chloro-1H-indol-3-yl)-3-(5-chloro-6-(2,2-dimethyl-1,3-dioxan-5-yl)pyridin-3-yl)urea] | 40 to 200 nM |
| Cc1cc(NC(=O)Nc2c[nH]c3cc(F)c(F)cc23)cnc1N1CC2(COC2)C1 [Compound 160, 1-(5,6-difluoro-1H-indol-3-yl)-3-(5-methyl-6-(2-oxa-6-azaspiro[3.3]heptan-6-yl)pyridin-3-yl)urea] | > 30000 nM |
| O=C(Nc1cnc(C2CCN(CC(F)(F)F)CC2)c(F)c1)Nc1c[nH]c2ccccc12 [Compound 271, 1-(5-fluoro-6-(1-(2,2,2-trifluoroethyl)piperidin-4-yl)pyridin-3-yl)-3-(1H-indol-3-yl)urea] | 200 to 1000 nM |
| CC1(C)OCC(c2ncc(NC(=O)Nc3c[nH]c4ccc(Cl)cc34)cc2Br)CO1 [Compound 294, 1-(5-bromo-6-(2,2-dimethyl-1,3-dioxan-5-yl)pyridin-3-yl)-3-(5-chloro-1H-indol-3-yl)urea] | 40 to 200 nM |
| O=C(Nc1cnc(C2CCC(F)(F)CC2)c(Cl)c1)Nc1c[nH]c2cc(Cl)ccc12 [Compound 140, 1-(6-chloro-1H-indol-3-yl)-3-(5-chloro-6-(4,4-difluorocyclohexyl)pyridin-3-yl)urea] | 1000 to 5000 nM |
| COC1CCN(c2ncc(NC(=O)Nc3c[nH]c4ccccc34)cc2C)CC1 [Compound 202, 1-(1H-indol-3-yl)-3-(6-(4-methoxypiperidin-1-yl)-5-methylpyridin-3-yl)urea] | 1000 to 5000 nM |
| COCCO[C@H]1CCN(c2ncc(NC(=O)Nc3c[nH]c4cc(F)c(F)cc34)cc2Cl)C1 [Compound 150, (S)-1-(5-chloro-6-(3-(2-methoxyethoxy)pyrrolidin-1-yl)pyridin-3-yl)-3-(5,6-difluoro-1H-indol-3-yl)urea] | 200 to 1000 nM |
| O=C(Nc1cnc(N2CCC(F)(F)CC2)c(Cl)c1)Nc1c[nH]c2cc(F)c(F)cc12 [Compound 199, 1-(5-chloro-6-(4,4-difluoropiperidin-1-yl)pyridin-3-yl)-3-(5,6-difluoro-1H-indol-3-yl)urea] | 40 to 200 nM |
| O=C(Nc1cnc(N2CCN(CC(F)(F)F)CC2)c(F)c1)Nc1c[nH]c2cc(F)c(F)cc12 [Compound 251, 1-(5,6-difluoro-1H-indol-3-yl)-3-(5-fluoro-6-(4-(2,2,2-trifluoroethyl)piperazin-1-yl)pyridin-3-yl)urea] | 40 to 200 nM |
| O=C(Nc1ccc(C2CC(F)(F)C2)c(Cl)c1)Nc1c[nH]c2ccc(Cl)cc12 [Compound 226, 1-(5-chloro-1H-indol-3-yl)-3-(3-chloro-4-(3,3-difluorocyclobutyl)phenyl)urea] | 40 to 200 nM |
| O=C(Nc1ccc(N2CC3(C2)CC(F)(F)C3)nc1)Nc1c[nH]c2ccc(Cl)cc12 [Compound 155, 1-(5-chloro-1H-indol-3-yl)-3-(6-(6,6-difluoro-2-azaspiro[3.3]heptan-2-yl)pyridin-3-yl)urea] | 40 to 200 nM |
| O=C(Nc1cnc(N2CCC3(CC2)CC3(F)F)c(Cl)c1)Nc1c[nH]c2cc(F)c(F)cc12 [Compound 236, 1-(5-chloro-6-(1,1-difluoro-6-azaspiro[2.5]octan-6-yl)pyridin-3-yl)-3-(5,6-difluoro-1H-indol-3-yl)urea] | 40 to 200 nM |
| O=C(Nc1ccnc(C2CCC(F)(F)CC2)c1)Nc1c[nH]c2ccccc12 [Compound 254, 1-(2-(4,4-difluorocyclohexyl)pyridin-4-yl)-3-(1H-indol-3-yl)urea] | 200 to 1000 nM |
| O=C(Nc1cnc(N2CCC(F)(F)CC2)nc1)Nc1c[nH]c2cc(F)c(F)cc12 [Compound 179, 1-(5,6-difluoro-1H-indol-3-yl)-3-(2-(4,4-difluoropiperidin-1-yl)pyrimidin-5-yl)urea] | 200 to 1000 nM |
| Cc1cc(NC(=O)Nc2c[nH]c3cc(F)c(F)cc23)cnc1N1CCC(F)(F)CC1 [Compound 200, 1-(5,6-difluoro-1H-indol-3-yl)-3-(6-(4,4-difluoropiperidin-1-yl)-5-methylpyridin-3-yl)urea] | 40 to 200 nM |
| CC1(C)CN(c2ncc(NC(=O)Nc3c[nH]c4cc(F)c(F)cc34)cc2F)CCO1 [Compound 290, 1-(5,6-difluoro-1H-indol-3-yl)-3-(6-(2,2-dimethylmorpholino)-5-fluoropyridin-3-yl)urea] | 40 to 200 nM |

| SMILES | EC50 |
| --- | --- |
| C[C@@H]1CN(c2ncc(NC(=O)Nc3c[nH]c4ccc(Cl)cc34)cc2Cl)C[C@@H](C)N1 [Compound 291, 1-(5-chloro-1H-indol-3-yl)-3-(5-chloro-6-((3R,5R)-3,5-dimethylpiperazin-1-yl)pyridin-3-yl)urea] | 1000 to 5000 nM |
| C[C@@H]1CN(c2ncc(NC(=O)Nc3c[nH]c4cc(F)c(F)cc34)cc2Cl)CCO1 [Compound 158, (R)-1-(5-chloro-6-(2-methylmorpholino)pyridin-3-yl)-3-(5,6-difluoro-1H-indol-3-yl)urea] | 200 to 1000 nM |
| O=C(Nc1cnn(C2CCN(CCC(F)(F)F)CC2)c1)Nc1c[nH]c2ccc(Cl)cc12 [Compound 223, 1-(5-chloro-1H-indol-3-yl)-3-(1-(1-(3,3,3-trifluoropropyl)piperidin-4-yl)-1H-pyrazo1-4-yl)urea] | 1000 to 5000 nM |
| O=C(Nc1cnc(C2CCN(CC(F)(F)F)CC2)c(Cl)c1)Nc1c[nH]c2ccc(Cl)cc12 [Compound 297, 1-(5-chloro-1H-indol-3-yl)-3-(5-chloro-6-(1-(2,2,2-trifluoroethyl)piperidin-4-yl)pyridin-3-yl)urea] | 40 to 200 nM |
| O=C(Nc1cnc(N2CCC(F)(F)CC2)c(Cl)c1)Nc1c[nH]c2ccc(Cl)cc12 [Compound 196, 1-(5-chloro-1H-indol-3-yl)-3-(5-chloro-6-(4,4-difluoropiperidin-1-yl)pyridin-3-yl)urea] | 40 to 200 nM |
| O=C(Nc1cnc(C2CC(F)(F)C2)c(Cl)c1)Nc1c[nH]c2cc(F)c(F)cc12 [Compound 173, 1-(5-chloro-6-(3,3-difluorocyclobutyl)pyridin-3-yl)-3-(5,6-difluoro-1H-indol-3-yl)urea] | 200 to 1000 nM |
| O=C(Nc1cnc(N2CCC(F)(F)C2)c(Cl)c1)Nc1c[nH]c2ccc(Cl)cc12 [Compound 243, 1-(5-chloro-1H-indol-3-yl)-3-(5-chloro-6-(3,3-difluoropyrrolidin-1-yl)pyridin-3-yl)urea] | 40 to 200 nM |
| O=C(Nc1cnc(N2CC(C(F)(F)F)C2)c(Cl)c1)Nc1c[nH]c2ccc(Cl)cc12 [Compound 233, 1-(5-chloro-1H-indol-3-yl)-3-(5-chloro-6-(3-(trifluoromethyl)azetidin-1-yl)pyridin-3-yl)urea] | 40 to 200 nM |
| O=C(Nc1cnc(N2CC3(CN(CC(F)(F)F)C3)C2)c(Cl)c1)Nc1c[nH]c2ccc(Cl)cc12 [Compound 262, 1-(5-chloro-1H-indol-3-yl)-3-(5-chloro-6-(6-(2,2,2-trifluoroethyl)-2,6-diazaspiro[3.3]heptan-2-yl)pyridin-3-yl)urea] | 40 to 200 nM |
| O=C(Nc1ccc(N2CCN(CC(F)(F)F)CC2)nc1)Nc1c[nH]c2ccc(F)cc12 [Compound 253, 1-(5-fluoro-1H-indol-3-yl)-3-(6-(4-(2,2,2-trifluoroethyl)piperazin-1-yl)pyridin-3-yl)urea] | 200 to 1000 nM |
| O=C(Nc1cnc(N2CCC(F)(F)CC2)c(CCO)c1)Nc1c[nH]c2cc(F)c(F)cc12 [Compound 143, 1-(5,6-difluoro-1H-indol-3-yl)-3-(6-(4,4-difluoropiperidin-1-yl)-5-(2-hydroxyethyl)pyridin-3-yl)urea] | 200 to 1000 nM |
| O=C(Nc1cnc(N2CC3(C2)CC(F)(F)C3)c(Cl)c1)Nc1c[nH]c2ccc(Cl)cc12 [Compound 138, 1-(5-chloro-1H-indol-3-yl)-3-(5-chloro-6-(6,6-difluoro-2-azaspiro[3.3]heptan-2-yl)pyridin-3-yl)urea] | 40 to 200 nM |
| C[C@@H]1CN(c2ncc(NC(=O)Nc3c[nH]c4ccc(Cl)cc34)cc2Cl)C[C@H](C)O1 [Compound 293, 1-(5-chloro-1H-indol-3-yl)-3-(5-chloro-6-((2S,6R)-2,6-dimethylmorpholino)pyridin-3-yl)urea] | 40 to 200 nM |
| O=C(Nc1cnc(N2CCN(CCC(F)(F)F)CC2)c(F)c1)Nc1c[nH]c2ccc(F)cc12 [Compound 267, 1-(5-fluoro-1H-indol-3-yl)-3-(5-fluoro-6-(4-(3,3,3-trifluoropropyl)piperazin-1-yl)pyridin-3-yl)urea] | 40 to 200 nM |
| Cc1cc(NC(=O)Nc2c[nH]c3ccccc23)cnc1N1CCC2(CC1)CC2 [Compound 198, 1-(1H-indol-3-yl)-3-(5-methyl-6-(6-azaspiro[2.5]octan-6-yl)pyridin-3-yl)urea] | 40 to 200 nM |
| O=C(Nc1ccc(C2CCC(F)(F)CC2)nc1)Nc1c[nH]c2ccccc12 [Compound 190, 1-(6-(4,4-difluorocyclohexyl)pyridin-3-yl)-3-(1H-indol-3-yl)urea] | 200 to 1000 nM |
